The values below come from ChEMBL document CHEMBL1125988, “Restricted rotation analogs of decarboxylated S-adenosylmethionine as inhibitors of polyamine biosynthesis” (Bioorg Med Chem Lett, 1991).

For data set [1], the system named is L1210. The experiment in a line: Compound was evaluated for % of growth control in cultured L1210 cells. It counts as functional, Mus musculus.
Data set [2] concerns L1210. Put plainly: Tested for inhibitory activity on cultured L1210 cells. Conditions: Mus musculus. It counts as functional, cell-based.
Data set [3] in a line: Lethal dose of compound towards active site probes for spermidine and spermine synthase in L1210 cultured cell assay,. It counts as toxicity, cell-based. Conditions: mouse, L1210 cells; read-out: LD50 (the source's name).
Data set [4] relates to L1210. The experiment in a line: Ornithine decarboxylase activity was measured by the enzymatic decarboxylation of L-[14C-COOH]-ornithine as nmol CO2 produced per hour per mg of protein in L1210 cells. It counts as functional, Mus musculus.
The subject of data set [5] is L1210. Put plainly: S-adenosyl-methionine decarboxylase activity was measured by the enzymatic decarboxylation of L-[14C-COOH]-methionine as nmol CO2 produced per hour per mg of protein in L1210 cells. It counts as functional, Mus musculus.
The test system of data set [6] is L1210. Put plainly: Cellular polyamine (SPD) content was determined in L1210 cells. It counts as functional, Mus musculus.
Data set [7] has as its system L1210. The experiment in a line: Cellular polyamine (putrescine) content was determined in L1210 cells. It counts as functional, Mus musculus.
Data set [8] has as its system L1210. Put plainly: Cellular polyamine (spermine) content was determined in L1210 cells. It counts as functional, Mus musculus.

As to `Br.C[S+](C[C@H]1O[C@@H](n2cnc3c(N)ncnc32)[C@H](O)[C@@H]1O)C1CCNC1.[Br-]` (stereo partly specified), the Growth in the data set on L1210 [1] was 58%. For the same compound, the IC50 – broadly, the concentration needed to halve the response being measured – with L1210 [2] came out at 1000 µM. In data set [3], the CC50 turned out to be 1000 µM. For the same compound, the results for the Activity with L1210 [4] and in the data set on L1210 [5] were 6.16 (nM of CO2) hr-1 mg-1 and 500 (nM of CO2) hr-1 mg-1, respectively. In addition, the figures for the Cellular content in the data set on L1210 [6], in the data set with L1210 [7] and with L1210 [8] were 208 pM (10e6*cells)-1, 170 pM (10e6*cells)-1 and 1290 pM (10e6*cells)-1, respectively.

`Nc1ncnc2c1ncn2[C@@H]1O[C@H](CSC2CCNC2)[C@@H](O)[C@H]1O` (stereo partly specified): in the data set on L1210 [1], the Growth worked out at 46%. The same compound showed an IC50 in the data set with L1210 [2] of 100 µM. In data set [3], the CC50 was found to be 100 µM. The Activity in the data set with L1210 [4] is 2.98 (nM of CO2) hr-1 mg-1; with L1210 [5], 367 (nM of CO2) hr-1 mg-1. Moreover, the Cellular content was 410 pM (10e6*cells)-1 with L1210 [6], 37 pM (10e6*cells)-1 in the data set with L1210 [7] and 1000 pM (10e6*cells)-1 with L1210 [8].
